Where a name gives a salt, the structure may show the parent alone.

The data set is described as follows: physchem. Particulars: pH 2.7.
Molecule `CCCc1cc(-c2sccc2C)n(C)n1` [1-Methyl-5-(3-methyl-2-thienyl)-3-propyl-1H-pyrazole] yielded a log p of 3.34.
The figure for `Cc1csc(-c2ccnn2C)c1` [1-Methyl-5-(4-methyl-2-thienyl)-1H-pyrazole] is 2.26; for `CCCc1cc(-c2cccs2)nn1C` [1-Methyl-5-propyl-3-(2-thienyl)-1H-pyrazole] it is 2.9; for `CCCn1ccc(-c2cccs2)n1` [1-Propyl-3-(2-thienyl)-1H-pyrazole] it is 2.58.
Regarding `CCCn1nccc1-c1cccs1` [1-Propyl-5-(2-thienyl)-1H-pyrazole], the log p came to 2.64.
As to `CCC(C)n1ccc(-c2cccs2)n1` (stereo not shown) [1-sec-Butyl-3-(2-thienyl)-1H-pyrazole], the log p came out at 3.1.
In turn, `CCC(C)n1cc(I)c(-c2cc(Cl)cs2)n1` (stereo not shown) [1-sec-Butyl-3-(4-chloro-2-thienyl)-4-iodo-1H-pyrazole] registered a log p of 5.01.
The molecule `CCC(C)n1ccc(-c2cc(C)cs2)n1` (stereo not shown) [1-sec-Butyl-3-(4-methyl-2-thienyl)-1H-pyrazole] had a log p of 3.63.
The figure for `CCC(C)n1cc(I)c(-c2cccs2)n1` (stereo not shown) [1-sec-Butyl-4-iodo-3-(2-thienyl)-1H-pyrazole] is 4.12; for `CCC(C)n1cc(I)c(-c2cc(C)cs2)n1` (stereo not shown) [1-sec-Butyl-4-iodo-3-(4-methyl-2-thienyl)-1H-pyrazole] it is 4.79; for `CCC(C)n1ncc(I)c1-c1cccs1` (stereo not shown) [1-sec-Butyl-4-iodo-5-(2-thienyl)-1H-pyrazole] it is 4.12.
`CCC(C)n1nccc1-c1cccs1` (stereo not shown) [1-sec-Butyl-5-(2-thienyl)-1H-pyrazole]: the log p was 2.97.
Molecule `CCC(C)n1ncc(I)c1-c1cc(Cl)cs1` (stereo not shown) [1-sec-Butyl-5-(4-chloro-2-thienyl)-4-iodo-1H-pyrazole] displayed a log p of 4.72.
On to `CCC(C)n1nccc1-c1cc(C)cs1` (stereo not shown) [1-sec-Butyl-5-(4-methyl-2-thienyl)-1H-pyrazole], for which the log p is 3.65.
To `CC(=O)c1ccc(-c2n[nH]cc2-c2ccncc2)s1` [1-{5-[4-(pyridin-4-yl)-1H-pyrazol-3-yl]-2-thienyl}ethanone hydrochloride] belongs 0.62.
`O=C(Cc1ccnc(Cl)n1)c1ccc(Cl)s1` [2-(2-Chloropyrimidin-4-yl)-1-(5-chloro-2-thienyl)ethanone] yielded a log p of 2.6.
To `CCC(C)n1cc(-c2ccnc(Br)c2)c(-c2ccc(Cl)s2)n1` (stereo not shown) [2-Bromo-4-[1-sec-butyl-3-(5-chloro-2-thienyl)-1H-pyrazol-4-yl]pyridine] belongs 5.03.
For the molecule `CC(C)Cn1cc(-c2ccnc(Cl)c2)c(-c2ccc(Cl)s2)n1` [2-Chloro-4-[1-isobutyl-3-(5-chloro-2-thienyl)-1H-pyrazol-4-yl]pyridine], the log p came out at 4.85.
On to `CC(C)Cn1ncc(-c2ccnc(Cl)c2)c1-c1ccc(Cl)s1` [2-Chloro-4-[1-isobutyl-5-(5-chloro-2-thienyl)-1H-pyrazol-4-yl]pyridine], for which the log p was found to be 4.62.
The molecule `CCC(C)n1cc(-c2ccnc(Cl)c2)c(-c2ccc(Cl)s2)n1` (stereo not shown) [2-Chloro-4-[1-sec-butyl-3-(5-chloro-2-thienyl)-1H-pyrazol-4-yl]pyridine] yielded a log p of 4.9.
To `Clc1cc(-c2c[nH]nc2-c2ccc(Cl)s2)ccn1` [2-Chloro-4-[3-(5-chloro-2-thienyl)-1H-pyrazol-4-yl]pyridine] belongs 2.75; to `CCC(C)n1cc(-c2ccnc(C#N)c2)c(-c2ccc(Cl)s2)n1` (stereo not shown) [2-Cyano-4-[1-sec-butyl-3-(5-chloro-2-thienyl)-1H-pyrazol-4-yl]pyridine], 4.41.
The figure for `C#CCNc1cc(-c2cn(CC(C)C)nc2-c2ccc(Cl)s2)ccn1` [2-Propargylamino-4-[1-isobutyl-3-(5-chloro-2-thienyl)-1H-pyrazol-4-yl]pyridine] is 2.3; for `CC(C)n1ccc(-c2cc(Br)c(Br)s2)n1` [3-(4,5-Dibromo-2-thienyl)-1-isopropyl-1H-pyrazole] it is 4.64.
On to `Brc1cc(-c2cc[nH]n2)sc1Br` [3-(4,5-Dibromo-2-thienyl)-1H-pyrazole], for which the log p was determined as 2.74.
Take `CCn1ccc(-c2cc(Br)cs2)n1` [3-(4-Bromo-2-thienyl)-1-ethyl-1H-pyrazole]: the log p came to 3.04.
On to `CC(C)n1ccc(-c2cc(Br)cs2)n1` [3-(4-Bromo-2-thienyl)-1-isopropyl-1H-pyrazole], for which the log p was 3.61.
Molecule `Brc1csc(-c2cc[nH]n2)c1` [3-(4-Bromo-2-thienyl)-1H-pyrazole] displayed a log p of 1.99.
Consider `CCn1cc(I)c(-c2cc(Cl)cs2)n1` [3-(4-Chloro-2-thienyl)-1-ethyl-4-iodo-1H-pyrazole], for which the log p came to 4.02.
To `Clc1csc(-c2cc[nH]n2)c1` [3-(4-Chloro-2-thienyl)-1H-pyrazole] belongs 1.91.
`CCCn1ccc(-c2cc(C)cs2)n1` [3-(4-Methyl-2-thienyl)-1-propyl-1H-pyrazole] showed a log p of 3.07.
To `Cc1csc(-c2cc[nH]n2)c1` [3-(4-Methyl-2-thienyl)-1H-pyrazole] belongs 1.72; to `Clc1csc(-c2n[nH]cc2I)c1` [3-(4-chloro-2-thienyl)-4-iodo-1H-pyrazole], 2.68.
To `N#Cc1[nH]nc(-c2ccc(Cl)s2)c1-c1ccncc1` [3-(5-Chloro-2-thienyl)-4-(pyridin-4-yl)-1H-pyrazole-5-carbonitrile] belongs 1.53.
To `CN(C)C=CC(=O)c1cccs1` [3-(Dimethylamino)-1-(2-thienyl)prop-2-en-1-one] belongs 1.33.
`Cc1csc(C(=O)C=CN(C)C)c1` [3-(Dimethylamino)-1-(4-methyl-2-thienyl)prop-2-en-1-one] displayed a log p of 1.65.
The figure for `CC(C)Nc1nccc(C(=CN(C)C)C(=O)c2ccc(Cl)s2)n1` [3-(Dimethylamino)-1-(5-chloro-2-thienyl)-2-[2-(isopropylamino)pyrimidin-4-yl]prop-2-en-1-one] is 1.67.
On to `CSc1nccc(C(=CN(C)C)C(=O)c2ccc(Cl)s2)n1` [3-(Dimethylamino)-1-(5-chloro-2-thienyl)-2-[2-(methylsulfanyl)pyrimidin-4-yl]prop-2-en-1-one], for which the log p came to 2.27.
In turn, `Cc1c(Br)c(-c2ccc(Cl)s2)nn1C` [4-Bromo-3-(5-chloro-2-thienyl)-1,5-dimethyl-1H-pyrazole] had a log p of 3.92.
`CCn1nc(-c2ccc(Cl)s2)c(Br)c1C` [4-Bromo-3-(5-chloro-2-thienyl)-1-ethyl-5-methyl-1H-pyrazole] gave a log p of 4.54.
`Cc1c(Br)c(-c2ccc(Cl)s2)nn1C(C)C` [4-Bromo-3-(5-chloro-2-thienyl)-1-isopropyl-5-methyl-1H-pyrazole]: the log p came out at 5.35.
On to `CC(C)n1cc(I)c(-c2cccs2)n1` [4-Iodo-1-isopropyl-3-(2-thienyl)-1H-pyrazole], for which the log p amounted to 3.71.
To `Cc1csc(-c2nn(C(C)C)cc2I)c1` [4-Iodo-1-isopropyl-3-(4-methyl-2-thienyl)-1H-pyrazole] belongs 4.26.
As for `CC(C)n1ncc(I)c1-c1cccs1` [4-Iodo-1-isopropyl-5-(2-thienyl)-1H-pyrazole], the log p was 3.66.
Molecule `CCCc1c(I)c(-c2sccc2C)nn1C` [4-Iodo-1-methyl-3-(3-methyl-2-thienyl)-5-propyl-1H-pyrazole] gave a log p of 4.03.
Regarding `Cc1csc(-c2nn(C)cc2I)c1` [4-Iodo-1-methyl-3-(4-methyl-2-thienyl)-1H-pyrazole], the log p was found to be 3.18.
The figure for `CCCc1nn(C)c(-c2sccc2C)c1I` [4-Iodo-1-methyl-5-(3-methyl-2-thienyl)-3-propyl-1H-pyrazole] is 4.27.
To `CCCc1c(I)c(-c2cccs2)nn1C` [4-Iodo-1-methyl-5-propyl-3-(2-thienyl)-1H-pyrazole] belongs 3.92; to `CCCn1cc(I)c(-c2cccs2)n1` [4-Iodo-1-propyl-3-(2-thienyl)-1H-pyrazole], 3.65; to `Ic1c[nH]nc1-c1cccs1` [4-Iodo-3-(2-thienyl)-1H-pyrazole], 2.1.
The figure for `CCCn1cc(I)c(-c2cc(C)cs2)n1` [4-Iodo-3-(4-methyl-2-thienyl)-1-propyl-1H-pyrazole] is 4.2.
Molecule `CCC[CH2][Sn]([CH2]CCC)([CH2]CCC)[c]1c(-c2ccncc2)cnn1C1CCCCO1` (stereo not shown) [4-[1-(tetrahydro-2H-pyran-2-yl)-5-(tributylstannyl)-1H-pyrazol-4-yl]pyridine] showed a log p of 4.89.
`Clc1ccc(-c2nn(C3CC3)cc2-c2ccncc2)s1` [4-[1-Cyclopropyl-3-(5-chloro-2-thienyl)-1H-pyrazol-4-yl]pyridine] showed a log p of 1.62.
In the case of `CCn1cc(-c2ccncc2)c(-c2cccs2)n1` [4-[1-Ethyl-3-(2-thienyl)-1H-pyrazol-4-yl]pyridine], the log p was 0.75.
To `CC(C)Cn1cc(-c2ccncc2)c(-c2ccc(C#N)s2)n1` [4-[1-Isobutyl-3-(5-cyano-2-thienyl)-1H-pyrazol-4-yl]pyridine] belongs 1.74.
On to `CC(C)n1cc(-c2ccncc2)c(-c2ccc(Cl)s2)n1` [4-[1-Isopropyl-3-(5-chloro-2-thienyl)-1H-pyrazol-4-yl]pyridine], for which the log p came to 1.82.
To `CC(C)n1cc(-c2ccncc2)c(-c2ccc(F)s2)n1` [4-[1-Isopropyl-3-(5-fluoro-2-thienyl)-1H-pyrazol-4-yl]pyridine] belongs 1.53; to `CSc1ccc(-c2nn(C(C)C)cc2-c2ccncc2)s1` [4-[1-Isopropyl-3-(5-methylsulfanyl-2-thienyl)-1H-pyrazol-4-yl]pyridine], 1.79; to `CC(C)n1ncc(-c2ccncc2)c1-c1ccc(Cl)s1` [4-[1-Isopropyl-5-(5-chloro-2-thienyl)-1H-pyrazol-4-yl]pyridine], 1.7.
Turning to `CC(C)n1ncc(-c2ccncc2)c1-c1ccc(F)s1` [4-[1-Isopropyl-5-(5-fluoro-2-thienyl)-1H-pyrazol-4-yl]pyridine], the log p stood at 1.51.
To `CSc1ccc(-c2c(-c3ccncc3)cnn2C(C)C)s1` [4-[1-Isopropyl-5-(5-methylsulfanyl-2-thienyl)-1H-pyrazol-4-yl]pyridine] belongs 1.78.

The values above are taken from patent US8685974B2 (Bayer CropScience AG, priority 2009, dated 2014).
